The text below walks through data of ChEMBL document CHEMBL1201862, “PubChem BioAssay data set” (2004).

The source made the active and inactive calls.

For series [1], the target named is T1, Cysteine protease ATG4B (Homo sapiens, UniProt Q9Y4P1).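 Note: Fluorescence-based dose-response confirmation assay measuring inhibition of ATG4B activity.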
T1 sequence (Q9Y4P1 whole entry): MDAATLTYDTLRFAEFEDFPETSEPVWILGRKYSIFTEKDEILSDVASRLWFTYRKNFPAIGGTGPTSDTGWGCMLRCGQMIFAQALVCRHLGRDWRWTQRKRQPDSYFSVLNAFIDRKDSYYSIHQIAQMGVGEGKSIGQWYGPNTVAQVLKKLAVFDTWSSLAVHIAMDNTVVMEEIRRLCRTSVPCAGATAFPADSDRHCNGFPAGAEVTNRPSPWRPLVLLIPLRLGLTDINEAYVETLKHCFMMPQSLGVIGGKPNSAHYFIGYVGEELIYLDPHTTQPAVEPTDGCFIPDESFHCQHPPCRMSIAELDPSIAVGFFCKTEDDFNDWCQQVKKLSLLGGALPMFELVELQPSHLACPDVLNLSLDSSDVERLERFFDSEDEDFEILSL
It is filed as functional.

Series [2] addresses Phospholipase A2 (Homo sapiens, UniProt P04054). It is filed as functional.
Series [3] in a line: NIH-3T3 fibroblast cytotoxicity, dose response, cytotoxicity control, cell-based, fluorescence, Alamar Blue, secondary assay (AID 2327).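 Note: NIH-3T3 mouse fibroblasts cultured with fluconazole at 8 µg/mL.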 In kind it is functional.
Series [4] has as its target Cytochrome P450 2D6 (Homo sapiens, UniProt P10635).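 Note: CYP2D6 member of a cytochrome P450 panel assay.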
Series [5] in a line: cytotoxicity toward NIH3T3 fibroblasts, dose response, counter-screen, cell-based, ATP luminescence, mouse fibroblasts (AID 2010).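 Note: cells exposed to compound for about 90 hours before reading.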 It is filed as functional.
Series [6] in a line: inhibitors of intracellular T. cruzi replication, confirmation, NIH3T3 host cells, beta-gal luminescence (AID 2044).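 Note: intracellular parasites grown in NIH/3T3 mouse fibroblasts as host cells; luminescent beta-galactosidase reporter signal from transgenic T. cruzi replicating inside host cells; inhibitors lower the luminescence signal.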 It is filed as functional, cell-based.
For series [7], the target named is Cytochrome P450 3A4 (Homo sapiens, UniProt P08684).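 Note: CYP3A4 tested as one member of a cytochrome P450 panel screen.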
Cytochrome P450 3A4, sequence (P08684 whole entry): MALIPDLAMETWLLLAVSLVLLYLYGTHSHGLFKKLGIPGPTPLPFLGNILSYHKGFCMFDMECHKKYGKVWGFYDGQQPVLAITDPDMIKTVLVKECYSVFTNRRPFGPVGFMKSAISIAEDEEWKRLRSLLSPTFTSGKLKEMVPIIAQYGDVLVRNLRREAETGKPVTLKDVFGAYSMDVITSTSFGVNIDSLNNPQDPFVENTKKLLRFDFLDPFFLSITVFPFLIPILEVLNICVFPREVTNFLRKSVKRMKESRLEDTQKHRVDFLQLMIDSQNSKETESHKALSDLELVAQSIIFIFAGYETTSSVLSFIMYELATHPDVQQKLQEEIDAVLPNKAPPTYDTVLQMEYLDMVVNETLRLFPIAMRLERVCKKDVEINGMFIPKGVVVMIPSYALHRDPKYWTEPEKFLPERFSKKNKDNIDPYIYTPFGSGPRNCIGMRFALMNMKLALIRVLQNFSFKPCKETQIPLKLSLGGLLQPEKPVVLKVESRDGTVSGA
Series [8] in a line: C. albicans growth with fluconazole, confirmation, fluorescence, retest (AID 2467). It is filed as functional, cell-based.
Series [9] concerns the target T2, Nuclear receptor subfamily 0 group B member 1 (Homo sapiens, UniProt P51843).
T2 sequence (P51843 whole entry): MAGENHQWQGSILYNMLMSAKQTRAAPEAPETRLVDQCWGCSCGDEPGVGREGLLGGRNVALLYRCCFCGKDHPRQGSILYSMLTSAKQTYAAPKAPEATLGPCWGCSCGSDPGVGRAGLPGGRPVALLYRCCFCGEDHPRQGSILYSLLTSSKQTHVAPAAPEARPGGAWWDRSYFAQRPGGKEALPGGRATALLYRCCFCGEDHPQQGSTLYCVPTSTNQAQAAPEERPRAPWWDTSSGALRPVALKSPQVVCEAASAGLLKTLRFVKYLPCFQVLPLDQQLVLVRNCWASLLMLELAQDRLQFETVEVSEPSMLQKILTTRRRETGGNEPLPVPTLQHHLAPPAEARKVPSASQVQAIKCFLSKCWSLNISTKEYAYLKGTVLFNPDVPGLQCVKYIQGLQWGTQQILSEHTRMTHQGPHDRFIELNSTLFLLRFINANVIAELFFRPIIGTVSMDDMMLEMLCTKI
Put plainly: Luminescence-based cell-based high throughput dose response assay for inhibitors of the orphan nuclear receptor subfamily 0, group B, member 1 (DAX1; NR0B1). [Related pubchem assays (depositor defined):AID504766, AID504790]. It is filed as functional.

Series [10] relates to HEK293. Nature of the series: cells. It is filed as functional, cell-based. Particulars: Homo sapiens.
Series [11] concerns the target T3, Cytochrome P450 1A2 (Homo sapiens, UniProt P05177).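 Note: PubChem cytochrome P450 panel assay, CYP1A2 panel member.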
T3 sequence (P05177 whole entry): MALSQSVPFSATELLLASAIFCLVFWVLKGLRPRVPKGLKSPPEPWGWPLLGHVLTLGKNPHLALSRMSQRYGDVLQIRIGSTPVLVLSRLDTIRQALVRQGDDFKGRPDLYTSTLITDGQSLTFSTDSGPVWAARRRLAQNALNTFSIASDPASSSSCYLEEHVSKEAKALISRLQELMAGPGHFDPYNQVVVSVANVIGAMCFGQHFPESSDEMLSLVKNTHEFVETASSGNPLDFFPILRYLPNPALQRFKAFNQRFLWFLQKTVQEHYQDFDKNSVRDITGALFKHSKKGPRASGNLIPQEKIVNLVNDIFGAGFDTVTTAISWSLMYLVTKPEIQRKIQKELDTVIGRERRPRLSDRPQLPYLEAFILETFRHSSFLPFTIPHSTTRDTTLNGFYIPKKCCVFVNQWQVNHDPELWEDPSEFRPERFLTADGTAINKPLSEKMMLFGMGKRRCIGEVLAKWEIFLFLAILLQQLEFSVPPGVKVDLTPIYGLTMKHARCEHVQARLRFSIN

Series [12] deals with T4, Ubiquitin-conjugating enzyme E2 N (Homo sapiens, UniProt P61088).
T4 sequence (P61088 whole entry): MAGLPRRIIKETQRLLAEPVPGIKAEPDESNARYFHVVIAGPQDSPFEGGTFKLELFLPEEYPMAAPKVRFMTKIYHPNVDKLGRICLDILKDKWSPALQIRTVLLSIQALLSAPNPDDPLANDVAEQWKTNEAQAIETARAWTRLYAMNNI
In kind it is functional.

The target in series [13] is Cytochrome P450 2C9 (Homo sapiens, UniProt P11712).
Cytochrome P450 2C9, sequence (P11712 whole entry): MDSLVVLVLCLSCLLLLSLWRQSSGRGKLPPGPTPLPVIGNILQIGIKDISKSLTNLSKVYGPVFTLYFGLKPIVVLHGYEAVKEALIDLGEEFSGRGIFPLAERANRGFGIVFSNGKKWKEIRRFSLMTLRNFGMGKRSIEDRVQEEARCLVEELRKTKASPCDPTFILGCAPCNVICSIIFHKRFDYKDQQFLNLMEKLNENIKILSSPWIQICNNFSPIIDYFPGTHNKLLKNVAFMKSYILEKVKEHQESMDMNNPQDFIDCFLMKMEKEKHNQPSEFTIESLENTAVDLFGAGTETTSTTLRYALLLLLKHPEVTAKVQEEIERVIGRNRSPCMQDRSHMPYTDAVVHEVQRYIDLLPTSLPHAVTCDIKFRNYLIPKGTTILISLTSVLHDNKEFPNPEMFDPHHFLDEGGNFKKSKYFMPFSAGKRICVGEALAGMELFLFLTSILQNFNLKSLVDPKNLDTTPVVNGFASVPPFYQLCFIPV
Series [14] concerns HEK293. Nature of the series: NOD1 signaling inhibitors, primary screen, cell-based, luminescence, uHTS (AID 1578). It is filed as functional. The conditions noted are these: Homo sapiens.
In series [15] the target is T5, High affinity choline transporter 1 (Homo sapiens, UniProt Q9GZV3).
T5 sequence (Q9GZV3 whole entry): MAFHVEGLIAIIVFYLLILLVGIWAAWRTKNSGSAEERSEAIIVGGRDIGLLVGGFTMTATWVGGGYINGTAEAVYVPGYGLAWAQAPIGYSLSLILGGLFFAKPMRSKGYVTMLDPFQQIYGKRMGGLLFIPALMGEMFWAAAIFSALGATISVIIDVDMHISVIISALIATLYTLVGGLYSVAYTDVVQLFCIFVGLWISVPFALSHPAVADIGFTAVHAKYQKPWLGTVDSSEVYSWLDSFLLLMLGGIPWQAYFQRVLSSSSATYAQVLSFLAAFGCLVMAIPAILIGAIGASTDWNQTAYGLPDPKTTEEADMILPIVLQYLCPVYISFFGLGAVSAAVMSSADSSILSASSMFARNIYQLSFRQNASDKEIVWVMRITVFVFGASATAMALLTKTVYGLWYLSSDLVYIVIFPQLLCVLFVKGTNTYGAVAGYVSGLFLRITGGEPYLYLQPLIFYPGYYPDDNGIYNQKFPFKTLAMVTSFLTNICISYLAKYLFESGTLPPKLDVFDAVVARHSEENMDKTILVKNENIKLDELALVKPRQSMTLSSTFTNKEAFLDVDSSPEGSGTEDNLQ
Nature of the series: CHT inhibitors, dose response, cell-based, 5-point CRC, membrane potential dye (AID 504840). In kind it is functional.

A short description of series [16]: Shn3 3'UTR reporter inhibitors, dose response, cell-based, Clone20 osteoblasts, firefly luciferase, cherry-picked (AID 624132).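 Note: firefly luciferase luminescence from reporter carrying the Shn3 3'UTR in osteoblasts.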 It is filed as functional.
The subject of series [17] is HEK293. Nature of the series: cells. Particulars: Homo sapiens. It is filed as functional, cell-based. This is another data set of the same source.
The test system of series [18] is HEK293. Nature of the series: cells. In kind it is functional, cell-based. Particulars: Homo sapiens. This is another data set of the same source.
Series [19] in a line: HepG2 cell cytotoxicity, dose response, cytotoxicity control for Shn3 inhibitor project, CellTiter-Glo, cherry-picked (AID 624134). In kind it is functional, cell-based. In general terms: ATP-based viability assays read luminescence as a measure of living cells.
Series [20] is described as follows: control 3'UTR Renilla luciferase suppression, dose response, counter-screen for Shn3 inhibitor project, cell-based, Clone20-Shn3RL, cherry-picked (AID 624133). In kind it is functional.
Series [21] deals with HEK293. Nature of the series: cells. It is filed as functional, cell-based. Particulars: Homo sapiens. The source holds these as a separate data set.
In series [22] the target is Nucleotide-binding oligomerization domain-containing protein 2 (Homo sapiens, UniProt Q9HC29). Put plainly: NOD2 signaling inhibitors, cell-based, luminescence, uHTS, HEK293 (AID 1566). It is filed as functional.
Nucleotide-binding oligomerization domain-containing protein 2, sequence (Q9HC29 whole entry, the tested form may be a part): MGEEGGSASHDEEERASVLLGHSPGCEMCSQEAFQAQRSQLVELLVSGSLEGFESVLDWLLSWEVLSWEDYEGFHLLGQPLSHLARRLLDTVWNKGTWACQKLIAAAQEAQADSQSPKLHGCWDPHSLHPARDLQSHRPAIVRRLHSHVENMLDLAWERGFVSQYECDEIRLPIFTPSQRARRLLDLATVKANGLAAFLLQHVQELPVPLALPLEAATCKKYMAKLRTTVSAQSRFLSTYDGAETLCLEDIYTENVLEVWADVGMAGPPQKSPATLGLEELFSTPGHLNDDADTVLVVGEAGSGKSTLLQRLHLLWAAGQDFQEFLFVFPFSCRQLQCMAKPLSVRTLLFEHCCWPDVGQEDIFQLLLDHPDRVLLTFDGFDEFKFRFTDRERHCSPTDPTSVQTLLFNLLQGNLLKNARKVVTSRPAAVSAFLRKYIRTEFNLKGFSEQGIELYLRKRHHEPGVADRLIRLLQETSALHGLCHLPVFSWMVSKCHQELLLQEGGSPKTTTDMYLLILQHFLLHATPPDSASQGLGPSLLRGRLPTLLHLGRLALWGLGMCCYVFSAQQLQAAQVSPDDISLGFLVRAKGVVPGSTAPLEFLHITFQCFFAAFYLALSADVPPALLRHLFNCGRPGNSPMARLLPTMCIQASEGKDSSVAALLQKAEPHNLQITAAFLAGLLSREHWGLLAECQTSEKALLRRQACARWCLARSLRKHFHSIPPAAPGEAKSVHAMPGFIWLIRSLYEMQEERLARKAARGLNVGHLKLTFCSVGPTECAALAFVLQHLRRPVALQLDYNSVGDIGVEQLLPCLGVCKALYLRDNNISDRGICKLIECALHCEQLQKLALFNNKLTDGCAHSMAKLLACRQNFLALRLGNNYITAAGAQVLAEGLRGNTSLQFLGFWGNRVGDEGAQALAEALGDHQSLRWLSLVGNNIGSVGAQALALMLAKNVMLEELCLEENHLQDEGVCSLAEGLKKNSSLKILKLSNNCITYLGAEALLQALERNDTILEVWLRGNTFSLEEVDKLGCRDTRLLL
In series [23] the test system is HEK293. Put plainly: NOD2 signaling inhibitors in MDP-stimulated cells, cell-based, uHTS, luminescence (AID 2001). It is filed as functional. The conditions noted are these: Homo sapiens.
Series [24] addresses Cytochrome P450 2C19 (Homo sapiens, UniProt P33261). Put plainly: Cytochrome panel assay with activity outcomes. Panel member name: p450-cyp2c19 Compounds with AC50 equal or less than 10 uM are considered active. It is filed as functional. The conditions noted are these: read-out: AC50.

Phospholipase A2, sequence (P04054 whole entry): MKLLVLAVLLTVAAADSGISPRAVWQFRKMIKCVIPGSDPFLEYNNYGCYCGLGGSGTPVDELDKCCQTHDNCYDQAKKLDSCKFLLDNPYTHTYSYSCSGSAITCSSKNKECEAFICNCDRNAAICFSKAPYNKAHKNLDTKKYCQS
Cytochrome P450 2C19, sequence (P33261 whole entry): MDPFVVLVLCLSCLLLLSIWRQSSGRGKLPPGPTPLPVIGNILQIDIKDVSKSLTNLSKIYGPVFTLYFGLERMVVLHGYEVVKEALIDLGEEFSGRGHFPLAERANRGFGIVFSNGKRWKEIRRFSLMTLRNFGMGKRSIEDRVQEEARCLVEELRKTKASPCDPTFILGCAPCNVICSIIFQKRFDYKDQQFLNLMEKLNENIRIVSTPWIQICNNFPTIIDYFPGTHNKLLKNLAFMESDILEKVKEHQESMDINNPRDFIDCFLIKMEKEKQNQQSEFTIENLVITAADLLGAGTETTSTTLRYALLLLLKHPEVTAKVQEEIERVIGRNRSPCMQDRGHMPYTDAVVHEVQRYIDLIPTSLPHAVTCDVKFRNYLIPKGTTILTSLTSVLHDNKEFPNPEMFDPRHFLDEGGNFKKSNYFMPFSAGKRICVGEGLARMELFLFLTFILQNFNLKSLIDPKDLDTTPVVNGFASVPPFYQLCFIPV
Cytochrome P450 2D6, sequence (P10635 whole entry): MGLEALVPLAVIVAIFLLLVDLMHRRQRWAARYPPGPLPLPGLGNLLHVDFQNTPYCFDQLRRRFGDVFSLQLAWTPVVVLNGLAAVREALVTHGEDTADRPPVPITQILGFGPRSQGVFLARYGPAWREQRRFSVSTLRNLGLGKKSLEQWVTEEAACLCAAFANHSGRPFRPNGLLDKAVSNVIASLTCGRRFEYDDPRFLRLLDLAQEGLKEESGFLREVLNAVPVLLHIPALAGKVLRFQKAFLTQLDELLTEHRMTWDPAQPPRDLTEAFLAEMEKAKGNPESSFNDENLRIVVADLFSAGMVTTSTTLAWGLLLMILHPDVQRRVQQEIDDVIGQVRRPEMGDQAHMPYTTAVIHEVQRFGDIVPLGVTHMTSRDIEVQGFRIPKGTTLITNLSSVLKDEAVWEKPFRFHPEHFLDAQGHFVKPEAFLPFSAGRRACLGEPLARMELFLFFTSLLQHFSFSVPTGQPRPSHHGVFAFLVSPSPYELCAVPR

Regarding `Cc1c(C)c(C)c(CO/N=C/c2cccs2)c(C)c1C`, the IC50 in [1] was 17.4 µM (active); in series [2] it was 7.99 µM (active).
Consider `O=C(c1ccccc1)c1ccc2[nH]c(-c3ccc(NC(=O)c4ccccc4Br)cc3)nc2c1`, for which the EC50 is 2.97 µM (active) in series [3], 7.33 µM (active) in series [5], 1.59 µM (active) in series [6] and 6.15 µM (active) in [8]. For the same compound, the AC50 in [4] is 14.1 µM (inconclusive); in [7] it was “inconclusive”.
For the compound `COc1ccc(-c2[nH]nc3c2C(c2ccc(OC(=O)N4CCOCC4)cc2)C(C#N)=C(N)O3)cc1` (stereo unspecified), the IC50 in series [1] is 18.3 µM (active); in series [2], 13.4 µM (active).
On to `COC(=O)c1cc(/N=C/c2c(O)oc3ccccc3c2=O)cc(C(=O)OC)c1`, for which the IC50 in series [9] and in [10] was > 67.5 µM (inactive) throughout.
For the compound `O=C(Nc1ccccc1)N1CC2(CCN(C(=O)Oc3ccccc3)CC2)C1`, the half-maximal activity concentration (AC50) in [11] is 20 µM (inconclusive); in [7], “inconclusive”.
Take `CN(NC1OC(=O)c2ccccc21)c1ccccc1[N+](=O)[O-]` (stereo unspecified): the IC50 in series [9] and in [10] was > 67.5 µM (inactive) throughout.
As to `CCCCn1c(SCC(=O)Nc2cc(C)n[nH]2)nc2ccsc2c1=O`, the IC50 in series [1] was 12.2 µM (active); in series [12], > 20 µM (inactive); in series [2] it was 9.31 µM (active).
Consider `C[C@@H]1CN(Cc2nc(-c3cccs3)no2)C[C@H](C)O1`, for which the IC50 in series [9] and in series [10] was > 67.5 µM (inactive) each time.
Take `O=C(Oc1ccccc1)N1CCC2(CC1)CN(c1ncccn1)C2`: the values for the AC50 in series [13], in series [11] and in series [7] were 25.1 µM (inconclusive), 25.1 µM (inconclusive) and “inconclusive”, respectively.
Take `O=C(c1ccccc1)c1cnc(Nc2ccccc2Cl)s1`: the values for the half-maximal inhibitory concentration (IC50) in series [1] and in series [2] were 11.5 µM (active) and 7.65 µM (active), respectively.
As to `CC1=CC(c2ccccc2)n2nnnc2N1` (stereo unspecified), the IC50 in series [9] and in [10] was > 67.6 µM (inactive) in each case.
For `COc1ccc(-c2nc(CN3CCN(c4ncnc5ccccc45)CC3)c(C)o2)c(OC)c1`, the concentration giving a half-maximal response (EC50) was 5.23 µM (active) in series [14] and 5.52 µM (active) in series [22]. The IC50 in series [15] was 16.8 µM (active); in [17], 6.96 µM (active); in series [18], > 20 µM (inactive); in [21], 13.7 µM (active); in series [23] it was 6.38 µM (active). Besides, the AC50 in [16] is 6.38 µM (active); in series [19], > 70 µM (inactive); in series [20] it was 5.24 µM (active).
Regarding `CCOC(=O)c1c(-c2ccccc2)nc2ccccn12`, the AC50 in [13] was 25.1 µM (inconclusive); in series [24], 25.1 µM (inconclusive); in [7], “inconclusive”.

The term IC50 denotes the concentration that gives 50% inhibition. As a reminder, the EC50 is the concentration giving half of the maximal effect. What is called AC50 is the midpoint of the concentration-response curve, whichever way the signal moves.
